Laboratory results reported in ChEMBL document CHEMBL6120978, “Anticancer activity of salinomycin quaternary phosphonium salts” (Eur J Med Chem, 2025).
Activity calls are given as the source filed them. The rule behind the calls is not given here.

Legend:
[1] = Cytotoxicity against human HaCaT cells incubated for 72 hrs by MTT assay; format: toxicity, cell-based
[2] = Cytotoxicity against chinese hamster V79 cells incubated for 72 hrs by MTT assay; format: toxicity, cell-based, Cricetulus griseus
[3] = Selectivity index, ratio of IC50 for cytotoxicity against human HaCaT cells to IC50 for cytotoxicity against human SW480 cells; format: toxicity, cell-based; conditions: HaCaT cells versus SW480 cells, read-out: Ratio IC50
[4] = Selectivity index, ratio of IC50 for cytotoxicity against chinese hamster V79 cells to IC50 for cytotoxicity against human SW480 cells; format: toxicity, cell-based; conditions: V79 cells versus SW480 cells, read-out: Ratio IC50
[5] = Selectivity index, ratio of IC50 for cytotoxicity against chinese hamster V79 cells to IC50 for cytotoxicity against human SW620 cells; format: toxicity, cell-based; conditions: V79 cells versus SW620 cells, read-out: Ratio IC50
[6] = Selectivity index, ratio of IC50 for cytotoxicity against chinese hamster V79 cells to IC50 for cytotoxicity against human MDA-MB-231 cells; format: toxicity, cell-based; conditions: V79 cells versus MDA-MB-231 cells, read-out: Ratio IC50
[7] = Selectivity index, ratio of IC50 for cytotoxicity against chinese hamster V79 cells to IC50 for cytotoxicity against human A549 cells; format: toxicity, cell-based; conditions: V79 cells versus A549 cells, read-out: Ratio IC50
MDA-MB-231 [8] = experiment: Effect on mitochondrial mass in human MDA-MB-231 cells assessed as increase in MTGreen positive cells at IC50 incubated for 48 hrs by MitoTracker Green FM staining based flow cytometry analysis relative to control; format: functional
MDA-MB-231 [9] = experiment: Effect on mitochondrial function in human MDA-MB-231 cells assessed as fold increase in mean fluorescence intensity at IC50 incubated for 48 hrs by MitoTracker Red CMXRos staining based flow cytometry analysis relative to control; format: functional
A549 [10] = experiment: Effect on mitochondrial function in human A549 cells assessed as increase in MTRed CMXRos positive cells at IC50 incubated for 48 hrs by MitoTracker Red CMXRos staining based flow cytometry analysis relative to control; format: functional
MDA-MB-231 [11] = experiment: Induction of cell cycle arrest in human […] cells assessed as accumulation of cells at G0/G1 phase at IC50 incubated for 24 hrs by propidium iodide staining based flow cytometry analysis (reference value: 50.9 %); format: functional
MDA-MB-231 [12] = experiment: Induction of apoptosis in human MDA-MB-231 cells assessed as viable cells at IC50 incubated for 72 hrs by Annexin V-FITC staining based flow cytometry analysis (reference value: 91.53 %); format: functional
Mitochondrial membrane [13] = experiment: Induction of mitochondrial membrane potential loss in human MDA-MB-231 cells assessed as green fluorescence at IC50 incubated for 48 hrs MitoTracker Green FM staining based flow cytometry analysis (reference value: 8.86 %); format: cell membranes
Mitochondrial membrane [14] = experiment: Induction of mitochondrial membrane potential loss in human MDA-MB-231 cells assessed as red fluorescence at IC50 incubated for 48 hrs MitoTrackerRed CMXRos staining based flow cytometry analysis (reference value: 91.1 %); format: cell membranes
Mitochondrial membrane [15] = experiment: Induction of mitochondrial membrane potential loss in human A549 cells assessed as red fluorescence at IC50 incubated for 48 hrs MitoTrackerRed CMXRos staining based flow cytometry analysis (reference value: 91.1 %); format: cell membranes
A549 [16] = experiment: Induction of ROS generation of human A549 cells assessed as fold increase at IC50 incubated for 6 hrs by CellROX Green staining based spectrofluorometer analysis relative to control; format: functional
[17] = test system: Staphylococcus epidermidis; experiment: Antimicrobial activity against Staphylococcus epidermidis ATCC 12228 incubated for 18 hrs by twofold microdilution method; format: functional
Lipid bilayer [18] = experiment: Induction of ionic transport in azolectin bilayer membrane assessed as specific channel-like structure formation in presence of HEPES buffer by electrophysiology technique
Lipid bilayer [19] = experiment: Induction of ionic transport in azolectin bilayer membrane assessed as irregular disturbance in membrane permeability in presence of HEPES buffer by electrophysiology technique
Lipid bilayer [20] = experiment: Induction of ionic transport in azolectin bilayer membrane assessed as membrane rupture in presence of HEPES buffer by electrophysiology technique
A549 [21] = experiment: Induction of mitochondrial respiration in human A549 cells assessed as increase in oxygen consumption rate upto 10 uM by Oxygraph-2K system; format: functional, cell-based
Lipid bilayer [22] = experiment: Induction of current generation in azolectin bilayer membrane in presence of HEPES buffer by electrophysiology technique
A549 [23] = experiment: Induction of mitochondrial respiration in human A549 cells assessed as increase in oxygen consumption rate by Oxygraph-2K system; format: functional, cell-based

| Compound | IC50 at 72 h [1] [nM] | IC50 at 72 h [2] [nM] | selectivity ratio [3] | selectivity ratio [4] | selectivity ratio [5] | selectivity ratio [6] | selectivity ratio [7] | Activity (MDA-MB-231 [8]) [%] | fold change (FC) (MDA-MB-231 [9]) | Activity (A549 [10]) [%] | Activity (MDA-MB-231 [11]) [%] | Activity (MDA-MB-231 [12]) [%] | Activity (Mitochondrial membrane [13]) [%] | Activity (Mitochondrial membrane [14]) [%] | Activity (Mitochondrial membrane [15]) [%] | fold change (FC) (A549 [16]) | MIC [17] [µg/mL] | further results |
| --- | --- | --- | --- | --- | --- | --- | --- | --- | --- | --- | --- | --- | --- | --- | --- | --- | --- | --- |
| CC[C@@H](C(=O)[C@@H](C)[C@@H](O)[C@H](C)[C@@H]1O[C@@H]([C@@H](CC)C(=O)OCCCC[P+](c2ccccc2)(c2ccccc2)c2ccccc2)CC[C@@H]1C)[C@H]1O[C@]2(C=C[C@@H](O)[C@]3(CC[C@@](C)([C@H]4CC[C@](O)(CC)[C@H](C)O4)O3)O2)[C@H](C)C[C@@H]1C.[Br-] | 1230 | 130 | 3.2 | 0.3 | 0.9 | 0.2 | 0.2 | 90 | 3 | 50 | 77.7 | 51.49 | 60.8 | 39.1 | 58.3 | 2 | 2 | Activity (Lipid bilayer [18]): inactive; Activity (Lipid bilayer [19]): inactive; Activity (Lipid bilayer [20]): inactive; Activity (A549 [21]): Active; Activity (Lipid bilayer [22]): Dose-dependent-effect |
| CCCC[P+](CCCC)(CCCC)CCCCOC(=O)[C@H](CC)[C@H]1CC[C@H](C)[C@H]([C@@H](C)[C@H](O)[C@H](C)C(=O)[C@H](CC)[C@H]2O[C@]3(C=C[C@@H](O)[C@]4(CC[C@@](C)([C@H]5CC[C@](O)(CC)[C@H](C)O5)O4)O3)[C@H](C)C[C@@H]2C)O1.[Br-] | 700 | 590 | 1.4 | 1.2 | 1.1 | 0.7 | 0.7 | 90 | 5 | 50 | 76.2 | 33.55 | 70.7 | 29.4 | 67.3 | 2 | 2 | Activity (A549 [23]): Active; Small Increase In Oxygen Consumption Rate Was Observed |
